Molecular target: T1, PLK4 (Homo sapiens, UniProt O00444)
T1 sequence (O00444 1-970): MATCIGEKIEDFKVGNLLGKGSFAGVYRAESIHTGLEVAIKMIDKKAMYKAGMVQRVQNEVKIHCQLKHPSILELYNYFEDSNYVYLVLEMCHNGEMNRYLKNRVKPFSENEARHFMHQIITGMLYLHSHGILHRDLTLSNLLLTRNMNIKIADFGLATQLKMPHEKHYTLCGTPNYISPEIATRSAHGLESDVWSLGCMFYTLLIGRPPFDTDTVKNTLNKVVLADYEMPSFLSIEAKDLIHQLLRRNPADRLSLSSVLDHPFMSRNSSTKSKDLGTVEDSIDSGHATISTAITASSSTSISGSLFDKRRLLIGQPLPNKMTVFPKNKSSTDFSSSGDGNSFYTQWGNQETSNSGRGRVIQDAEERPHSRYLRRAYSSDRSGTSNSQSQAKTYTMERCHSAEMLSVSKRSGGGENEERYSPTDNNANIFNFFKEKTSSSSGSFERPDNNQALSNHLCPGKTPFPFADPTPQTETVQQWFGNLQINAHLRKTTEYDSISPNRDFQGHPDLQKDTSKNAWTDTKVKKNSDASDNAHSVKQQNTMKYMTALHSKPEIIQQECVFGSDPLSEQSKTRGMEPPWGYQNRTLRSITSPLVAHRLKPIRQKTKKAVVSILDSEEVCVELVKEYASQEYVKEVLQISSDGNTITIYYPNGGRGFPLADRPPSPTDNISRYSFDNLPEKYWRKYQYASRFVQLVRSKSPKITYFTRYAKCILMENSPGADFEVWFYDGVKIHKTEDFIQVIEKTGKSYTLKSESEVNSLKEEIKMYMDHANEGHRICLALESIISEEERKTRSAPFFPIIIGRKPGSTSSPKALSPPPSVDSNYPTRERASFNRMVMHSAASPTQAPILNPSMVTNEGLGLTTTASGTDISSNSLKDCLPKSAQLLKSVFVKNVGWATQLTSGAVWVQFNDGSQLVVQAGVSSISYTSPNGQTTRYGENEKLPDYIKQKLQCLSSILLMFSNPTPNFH
Experiment: Activity (IC50) of the Table 1 compounds as PLK4 inhibitors
Format: biochemical
Conditions: Table 1, IC50 class

SMILES	IC50
COc1cccc(CS(=O)(=O)c2ccc(Sc3nc(Nc4cc(C)[nH]n4)c(OC)c(N4CCN(CCN(C)Cc5ccccc5)CC4)n3)cc2)c1	< 100 nM
COc1c(Nc2cc(C)[nH]n2)nc(Sc2ccc(S(=O)(=O)Cc3cccc([N+](=O)[O-])c3)cc2F)nc1N1CCOC[C@@H]1C	< 100 nM
Cc1ccc(Sc2nc(Nc3cc(C)[nH]n3)c(C)c(N3CCCCC3)n2)cc1	< 100 nM
COc1c(Nc2cc(C)[nH]n2)nc(Sc2ccc(S(=O)(=O)Cc3cccc([N+](=O)[O-])c3Cl)cc2)nc1N1CCN(CCN(C)C)CC1	< 100 nM
COc1c(C)nc(Sc2ccc(S(=O)(=O)Cc3ccccc3)cc2)nc1Nc1cc(C)[nH]n1	< 100 nM
COc1c(Nc2cc(C)[nH]n2)nc(Sc2ccc(S(=O)(=O)C(C)(C)c3cccc([N+](=O)[O-])c3F)cc2F)nc1N1CCN(C)CC1	< 100 nM
COc1c(Nc2cc(C)[nH]n2)nc(Sc2ccc(S(=O)(=O)Cc3cccnc3)cc2)nc1N1CCN(CCN(C)C)CC1	< 100 nM
Cc1cc(Nc2nc(Sc3ccc(NC(=O)C4CCCC4)cc3)nc(N3CCN(CCN(C)C)CC3)c2C)n[nH]1	< 100 nM
COc1c(Nc2cc(C)[nH]n2)nc(Sc2ccc(S(=O)(=O)C(C)(C)c3cc(F)cc(Cl)c3F)cc2F)nc1N1CCC(CCN(C)C)CC1	< 100 nM
COc1c(Nc2cc(C)[nH]n2)nc(Sc2ccc(S(=O)(=O)C(C)(C)c3c(F)c(F)cc(F)c3F)cc2F)nc1N1CCC(CC(=O)N(C)C)CC1	< 100 nM
COc1c(Nc2cc(C)[nH]n2)nc(Sc2ccc(S(=O)(=O)C(C)(C)c3cccc([N+](=O)[O-])c3F)cc2F)nc1N1CCC(O)C1 (stereo not drawn)	< 100 nM
Cc1ccc(Sc2nc(Nc3cc(C)[nH]n3)c(C)c(N3CCOCC3)n2)cc1	< 100 nM
CCS(=O)(=O)c1ccc(Sc2nc(C)c(OC)c(Nc3cc(C)[nH]n3)n2)cc1	< 100 nM
CCN1CCN(c2nc(Sc3ccc(NC(C)=O)cc3)nc(Nc3cc(C)[nH]n3)c2OC)CC1	< 100 nM
CCOc1c(Nc2cc(C)[nH]n2)nc(Sc2ccc(S(=O)(=O)CC)cc2)nc1N1CCN(CCN(C)C)CC1	< 100 nM
COc1ccc(CS(=O)(=O)c2ccc(Sc3nc(Nc4cc(C)[nH]n4)c(OC)c(N4CCOCC4)n3)c(F)c2)cc1	< 100 nM
COc1c(Nc2cc(C)[nH]n2)nc(Sc2ccc(S(=O)(=O)C(C)(C)c3cccc([N+](=O)[O-])c3F)cc2F)nc1N1CCC(CN(C)C)CC1	< 100 nM
CNC(=O)Nc1ccc(Sc2nc(Nc3cc(C)[nH]n3)c(OC)c(N3CCN(CCN(C)C)CC3)n2)cc1	< 100 nM
COc1c(Nc2ncc(C)s2)nc(Sc2ccc(S(C)(=O)=O)cc2)nc1N1CCN(CCN(C)C)CC1	< 100 nM
COc1c(Nc2cc(C)[nH]n2)nc(Sc2ccc(S(=O)(=O)Cc3ccccc3)cc2)nc1N1CCN(CCN2CCC2)CC1	< 100 nM
COC(=O)c1ccc(Sc2nc(Nc3cc(C)[nH]n3)c(OC)c(N3CCN(CCN(C)C)CC3)n2)cc1	< 100 nM
COc1c(Nc2cc(C)[nH]n2)nc(Sc2ccc(NC(C)=O)cc2)nc1C1=CCN(CC(=O)N(C)C)CC1	< 100 nM

SMILES	IC50
Cc1cc(Nc2nc(Sc3ccc(NC(=O)C4CC4)cc3)nc(N3CCCCC3)c2C)n[nH]1	< 100 nM
COc1c(Nc2cc(C)[nH]n2)nc(Sc2ccc(S(=O)(=O)Cc3cccc(Cl)c3F)cc2F)nc1N1CCOCC1	< 100 nM
CC(=O)Nc1ccc(Sc2nc(Nc3cc(C)[nH]n3)c(C)c(N3CC=CCC3)n2)cc1	< 100 nM
COc1c(Nc2cc(C)[nH]n2)nc(Sc2ccc(S(=O)(=O)Cc3ccccc3C#N)cc2)nc1N1CCN(CCN(C)C)CC1	< 100 nM
COc1c(Nc2cc(C)[nH]n2)nc(Sc2ccc(S(=O)(=O)C(C)(C)c3c(F)c(F)cc([N+](=O)[O-])c3F)cc2F)nc1N1CCN(CCN(C)C)CC1	< 100 nM
COCC(=O)N1CCN(c2nc(SC)nc(Nc3cc(C)[nH]n3)c2C)CC1	< 100 nM
CCS(=O)(=O)c1ccc(Sc2nc(Nc3cc(C)[nH]n3)c(OC)c(N3CCN(C)CC3)n2)cc1	< 100 nM
COc1c(Nc2cc(C)[nH]n2)nc(Sc2ccc(S(=O)(=O)Cc3cccc(C(=O)O)c3)cc2)nc1N1CCN(CCN(C)C)CC1	< 100 nM
COc1c(Nc2cc(C)[nH]n2)nc(Sc2ccc(NC(C)=O)cc2)nc1N1CCN(CC(=O)N2CCOCC2)CC1	< 100 nM
CC(=O)Nc1ccc(Sc2nc(Nc3cc(C)[nH]n3)c(C)c(N3CCC(C(C)=O)CC3)n2)cc1	< 100 nM
CC(=O)N1CCN(c2nc(Sc3ccc(NC(=O)C4CCCC4)cc3)nc(Nc3cc(C)[nH]n3)c2C)CC1	< 100 nM
COc1c(Nc2cc(C)[nH]n2)nc(Sc2ccc(S(=O)(=O)Cc3ccc(Cl)cc3)cc2)nc1N1CCN(CCN(C)C)CC1	< 100 nM
COc1c(Nc2cc(C)[nH]n2)nc(Sc2ccc(S(=O)(=O)C(C)(C)c3c(F)c(F)c(C)c(F)c3F)cc2F)nc1N1CCOCC1	< 100 nM
COc1c(Nc2cc(C)[nH]n2)nc(Sc2ccc(S(=O)(=O)Cc3cccc(F)c3)cc2)nc1N1CCN(CCN(C)C)CC1	< 100 nM
CC(=O)Nc1ccc(Sc2nc(Nc3cc(C)[nH]n3)c(C)c(N3CCN(C(C)=O)CC3)n2)cc1	< 100 nM
COc1c(Nc2cc(C)[nH]n2)nc(Sc2ccc(S(=O)(=O)Cc3cccc([N+](=O)[O-])c3)cc2)nc1N1CCOCC1	< 100 nM
COc1c(Nc2cc(C)[nH]n2)nc(Sc2ccc(S(=O)(=O)Cc3ncco3)cc2)nc1N1CCN(CCN(C)C)CC1	< 100 nM
COc1c(Nc2cc(C)[nH]n2)nc(Sc2ccc(S(C)(=O)=O)cc2Cl)nc1N1CCN(CCN(C)C)CC1	< 100 nM
COc1c(Nc2cc(C)[nH]n2)nc(Sc2ccc(S(=O)(=O)C(C)(C)c3c(F)c(F)cc(F)c3F)cc2F)nc1N1CCC(CCN)CC1	< 100 nM
COc1c(Nc2cc(C)[nH]n2)nc(Sc2ccc(S(=O)(=O)C(C)(C)C3CC3)cc2)nc1N1CCN(CCN(C)C)CC1	< 100 nM
CCS(=O)(=O)c1ccc(Sc2nc(Nc3cc(C)[nH]n3)c(OC)c(N3CCN(CCN4CCN(C)CC4)CC3)n2)cc1	< 100 nM
COc1c(Nc2cc(C)[nH]n2)nc(Sc2ccc(S(=O)(=O)Cc3cccc(-c4ccccc4)c3)cc2)nc1N1CCN(CCN(C)C)CC1	< 100 nM

SMILES	IC50
COc1c(Nc2cc(C)[nH]n2)nc(Sc2ccc(NC(C)=O)cc2)nc1N1CCN(CC(=O)N2CCCCC2)CC1	< 100 nM
CNCCN(C)c1nc(Sc2ccc(NC(=O)C3CC3)cc2)nc(Nc2cc(C)[nH]n2)c1C	< 100 nM
CCCOc1c(Nc2cc(C)[nH]n2)nc(Sc2ccc(S(=O)(=O)Cc3ccccc3)cc2)nc1N1CCN(CCN(C)C)CC1	< 100 nM
CCN(c1nc(Sc2ccc(NC(C)=O)cc2)nc(Nc2cc(C)[nH]n2)c1C)C(C)C	< 100 nM
CC(=O)Nc1ccc(Sc2nc(Nc3cc(C)[nH]n3)c(C)c(C3CCN(CCN(C)C)CC3)n2)cc1	< 100 nM
Cc1cc(Nc2nc(Sc3ccc(NC(=O)C4CC4)cc3)nc3c2C(C)CC3)n[nH]1 (stereo not drawn)	< 100 nM
COc1c(Nc2cc(C)[nH]n2)nc(Sc2ccc(NC(C)=O)cc2)nc1N1CCCC1	< 100 nM
COc1c(Nc2cc(C)[nH]n2)nc(Sc2ccc(S(=O)(=O)Cc3cccc(NC(C)=O)c3)cc2)nc1N1CCN(CCN(C)C)CC1	< 100 nM
COc1c(Nc2cc(C)[nH]n2)nc(Sc2ccc(S(=O)(=O)Cc3cccc([N+](=O)[O-])c3)cc2)nc1N1CCOC[C@H]1C	< 100 nM
COc1c(Nc2cc(C)[nH]n2)nc(Sc2ccc(S(=O)(=O)C(C)(C)c3cccc([N+](=O)[O-])c3F)cc2F)nc1N1CC[C@H](N(C)C)C1	< 100 nM
Cc1cc(Nc2nc(Sc3ccc([N+](=O)[O-])cc3)nc3c2CCC32CCN(C(=O)C(C)(C)C)CC2)n[nH]1	< 100 nM
COc1c(Nc2cc(C)[nH]n2)nc(Sc2ccc(S(=O)(=O)Cc3cccc(N)c3F)cc2F)nc1N1CCOCC1	< 100 nM
CSc1nc(Nc2cc(C)[nH]n2)c(C)c(N2CCOCC2)n1	< 100 nM
COc1c(Nc2cc(C)[nH]n2)nc(Sc2ccc(S(=O)(=O)c3cccc([N+](=O)[O-])c3)cc2F)nc1N1CCOCC1	< 100 nM
COc1c(Nc2cc(C)[nH]n2)nc(Sc2ccc(NC(C)=O)cc2)nc1N1CC2CCC(C1)N2CCN1CCCCCCC1	< 100 nM
COc1c(Nc2cc(C)[nH]n2)nc(Sc2ccc(S(=O)(=O)C(C)(C)c3nccs3)cc2)nc1N1CCN(CCN(C)C)CC1	< 100 nM
COc1c(Nc2cc(C)[nH]n2)nc(Sc2ccc(S(=O)(=O)Cc3cccc(C(=O)N(C)C)c3F)cc2F)nc1N1CCOCC1	< 100 nM
COc1c(Nc2cc(C)[nH]n2)nc(Sc2ccc(S(=O)(=O)C(C)(C)c3ncc[nH]3)cc2)nc1N1CCN(CCN(C)C)CC1	< 100 nM
COc1c(Nc2cc(C)[nH]n2)nc(Sc2ccc(S(=O)(=O)Cc3cccc([N+](=O)[O-])c3)cc2)nc1N1CCOC[C@@H]1CO	< 100 nM
COCC(=O)N1CCN(c2nc(Sc3ccc(NC(=O)C4CCCC4)cc3)nc(Nc3cc(C)[nH]n3)c2C)CC1	< 100 nM
COc1c(Nc2cc(C)[nH]n2)nc(Sc2ccc(S(=O)(=O)C(C)(C)c3cccc([N+](=O)[O-])c3F)cc2F)nc1N1CCC(N(C)C(C)=O)CC1	< 100 nM
COc1c(Nc2cc(C)[nH]n2)nc(Sc2ccc(NC(C)=O)cc2)nc1N1CC2CCC(C1)N2CCN(C)C	< 100 nM

— patent publication US11612604B2, “Methods of treating cancer with PLK4 inhibitors” (LUDWIG INSTITUTE FOR CANCER RESEARCH LTD, priority 2017, dated 2023)
